Test results: patent EP0637449A1, “Use of L-carnitine or acyl L-carnitines and valproate for treating seizure disorders” (Sigma-Tau Industrie Farmaceutiche Riunite S.p.A., priority 1993, dated 1995)

Test system: epileptic patients
Assay: Clinical trial: seizure frequency in epileptic patients on valproate with added L-carnitine
Format: in vivo
Settings: 45 patients treated only with valproate for at least six months, then valproate and L-carnitine for at least one year; compared with the pre-treatment period (valproate only). Pre-carnitine vs greater than 12 months p<0.001; start-6 months vs greater than 12 months p=0.0001; 6-12 months vs greater than 12 months p=0.0001
Protocol: Fortyfive patients, 20 females and 25 males, mean age 24.5±8.48 years, were included in the study.
Some patients had more than one seizure type.
All of the patients had been treated only with valproate for at least six months.
Subsequently, they were treated with both valproate and L-carnitine for at least one year.
At intervals L-carnitine activity was assessed on some parameters including seizure frequency, in comparison with the pre-treatment period (valproate only, no L-carnitine). The intervals selected for all the controls were: between the start to 6 months of L-carnitine therapy, […], and L-carnitine therapy greater than 12 months.
Parameter assessment was not carried out at prefixed dates but within the 0-6, 6-12 and greater than 12 month periods in order to evaluate the seizure frequency over a sufficiently extended time period.

With `C[N+](C)(C)C[C@H](O)CC(=O)[O-]` [L-carnitine] the seizure frequency was “decreased progressively and steadily”.
